Data from US9029337B2, “Modulation of factor 7 expression” (Isis Pharmaceuticals, Inc., priority 2007, dated 2015).
e = 2'-O-(2-methoxyethyl) (MOE); d = 2'-deoxy (DNA)

Assays:
murine Factor 7 mRNA [1] = experiment: Single dose pharmacokinetic assay: liver Factor 7 mRNA in BALB/c mice; format: in vivo, mouse; conditions: single dose 50 mg/kg; for % Inhibition: liver Factor 7 mRNA, BALB/c mice
Description: The half-life and duration of action of ISIS 403102 in mice was evaluated. A group of 27 BALB/c mice was injected with 50 mg/kg of ISIS 403102. Three mice from the group were sacrificed at days 1, 2, 3, 4, 6, 8, 12, 24, and 56 after the single dose of ISIS 403102 was administered. A control group of 3 mice was injected with a single dose of PBS, and mice in this group were sacrificed on day 1. Mice in all groups were sacrificed by cervical dislocation following anesthesia with 150 mg/kg ketamine mixed with 10 mg/kg xylazine administered by intraperitoneal injection. Liver was harvested for RNA analysis and plasma was collected for clotting analysis (PT and aPTT).
RNA was extracted from liver tissue for real-time RT-PCR analysis of Factor 7. Results are presented as percent inhibition of Factor 7, relative to PBS control. […] Results are presented as percent inhibition of Factor 7, relative to control.

murine Factor 7 mRNA [2] = experiment: Multiple dose pharmacokinetic assay: liver Factor 7 mRNA in mice; format: in vivo, mouse; conditions: for % Inhibition: liver Factor 7 mRNA, mice, relative to PBS control
Description: The duration of action of multiple doses of ISIS 403102 on antisense inhibition of murine Factor 7 and clotting time was evaluated. In a first group of mice, 25 mg/kg of ISIS 403102 was injected subcutaneously as a single dose. Mice from the first group were sacrificed on days 1 and 3 after the single dose. In a second group of mice, 25 mg/kg of ISIS 403102 was administered subcutaneously twice a week for 1 week. Mice from the second group were sacrificed on day 3 after the last dose of ISIS 403102 was administered. In a third group of mice, 25 mg/kg of ISIS 403102 was administered subcutaneously twice a week for 2 weeks. Mice from the third group were sacrificed on day 3 after the last dose of ISIS 403102 was administered. In a fourth group of mice, 25 mg/kg of ISIS 403102 was administered subcutaneously twice a week for 3 weeks. Mice from the fourth group were sacrificed on days 2, 7, 14, 28, 42, and 56 after the last dose of ISIS 403102 was administered. A control group of 3 mice was injected with PBS in a single dose. Mice from the control group were sacrificed 1 day later. Mice in all groups were sacrificed by cervical dislocation following anesthesia with 150 mg/kg ketamine mixed with 10 mg/kg xylazine administered by intraperitoneal injection. Liver was harvested for RNA analysis and plasma was collected for clotting analysis (PT and aPTT) for mice in all groups.
RNA was extracted from liver tissue for quantitative RT-PCR analysis of Factor 7. Results are presented as percent inhibition of Factor 7, relative to PBS control. […] Inhibition increased through day 3 in the single dose treatment group. […] Inhibition increased through day 3 in the 2 dose treatment group.

For “CCATAGAACAGCTTCACAGG (sugars from the 5' end e5 d10 e5, backbone and methylation of C not given here) [ISIS 403102]”, the “% Inhibition” value (murine Factor 7 mRNA [1]; day 1, relative to PBS control) was 61%, the “% Inhibition” value (murine Factor 7 mRNA [1]; day 2, relative to PBS control) was 87% and the “% Inhibition” value (murine Factor 7 mRNA [1]; day 3, relative to PBS control) was 92%. For the same sequence, the “% Inhibition” value (murine Factor 7 mRNA [1]; day 4, relative to PBS control) was 92%, the “% Inhibition” value (murine Factor 7 mRNA [1]; day 6, relative to PBS control) was 86% and the “% Inhibition” value (murine Factor 7 mRNA [1]; day 8, relative to PBS control) was 80%. For the same sequence, the “% Inhibition” value (murine Factor 7 mRNA [1]; day 12, relative to PBS control) was 72%, the “% Inhibition” value (murine Factor 7 mRNA [1]; day 24, relative to PBS control) was 11% and the “% Inhibition” value (murine Factor 7 mRNA [1]; day 56, relative to PBS control) was 0%. For the same sequence, the duration of action (murine Factor 7 mRNA [1]) was “at least 24 days”, the peak effect (murine Factor 7 mRNA [1]) was roughly 4 days and the “inhibition of Factor 7 mRNA” value (murine Factor 7 mRNA [1]; day 4) was 92%. For the same sequence, the “inhibition of Factor 7 mRNA” value (murine Factor 7 mRNA [1]; day 24) was 11%, the “Factor 7 mRNA levels” value (murine Factor 7 mRNA [1]; day 56) was “equal to that of the PBS control” and the “Factor 7 inhibition” value (murine Factor 7 mRNA [2]; 6 doses of 25 mg/kg, days 14, 28, 42 and 56 after last dose) was “declined progressively”. The “% Inhibition” value (murine Factor 7 mRNA [2]; 25 mg/kg subcutaneously twice a week, 2 doses, 3 days after last dose) was 86%, the “% Inhibition” value (murine Factor 7 mRNA [2]; 25 mg/kg subcutaneously twice a week, 4 doses, 3 days after last dose) was 91% and the “% Inhibition” value (murine Factor 7 mRNA [2]; 25 mg/kg subcutaneously twice a week, 6 doses, 2 days after last dose) was 83%. For the same sequence, the “% Inhibition” value (murine Factor 7 mRNA [2]; 25 mg/kg subcutaneously twice a week, 6 doses, 7 days after last dose) was 88%, the “% Inhibition” value (murine Factor 7 mRNA [2]; 25 mg/kg subcutaneously twice a week, 6 doses, 14 days after last dose) was 64% and the “% Inhibition” value (murine Factor 7 mRNA [2]; 25 mg/kg subcutaneously twice a week, 6 doses, 28 days after last dose) was 33%. For the same sequence, the “% Inhibition” value (murine Factor 7 mRNA [2]; 25 mg/kg subcutaneously twice a week, 6 doses, 42 days after last dose) was 5%, the “% Inhibition” value (murine Factor 7 mRNA [2]; 25 mg/kg subcutaneously twice a week, 6 doses, 56 days after last dose) was 11% and the “% Inhibition” value (murine Factor 7 mRNA [2]; 25 mg/kg subcutaneously, 1 dose, 1 day after last dose) was 44%. The “% Inhibition” value (murine Factor 7 mRNA [2]; 25 mg/kg subcutaneously, 1 dose, 3 days after last dose) was 74% and the “inhibition of Factor 7 mRNA” value (murine Factor 7 mRNA [2]; single dose 25 mg/kg subcutaneously) was “inhibition of Factor 7 as early as day 1”.
